{"source": "patent US20080214555A1", "about": "(priority 2007, published 2008)", "key": {"[1]": {"test_system": "patients with non-ST elevation acute coronary syndrome", "experiment": "MERLIN-TIMI 36: ischemia on Holter / continuous ECG (CECG)", "format": "in vivo, human", "description": "Median clinical follow-up was 12 months. At randomization, 3-lead CECG monitoring was initiated for median duration of 6.9 days. Recurrent ischemia on CECG was defined as ST dep >1 mm from baseline lasting >1 min. The TRS is calculated as the sum of seven presenting characteristics: 1) age >65 yrs, 2) >3 cardiac risk factors, 3) documented coronary artery disease, 4) recent severe angina, 5) ST deviation >0.5 mm, 6) elevated cardiac markers, and 7) prior aspirin use and is categorized as low (0-2), moderate (3-4), or high (>4) risk.\nThe data for total duration (minutes) of ischemia on Holter between randomization and 72 hours from MERLIN-TIMI 36 is shown in Table 19 below.\nAt randomization, 6355 patients (99%) had 3-lead CECG monitoring initiated (median duration 6.9 days). The primary CECG endpoint was the rate of ST dep ≧1 mm from baseline lasting ≧1 minute with heart rate at onset <100 bpm. Exploratory analyses using ST dep ≧0.5 mm were also performed."}, "[2]": {"test_system": "patients with non-ST elevation acute coronary syndrome", "experiment": "MERLIN-TIMI 36: HbA1c and hyperglycemia", "format": "in vivo, human", "description": "HbA1c data are reported as least-square means. Patients categorized as “diabetic” had been diagnosed as diabetic before or at the time of randomization. Patients categorized as “no diabetes” had not been diagnosed as diabetic before or at the time of randomization. Some patients characterized as “no diabetes” may have been diagnosed as “diabetic” during the trial; however, these patients are still listed in the “no diabetes” category in FIG. 4B."}, "[3]": {"test_system": "patients with non-ST elevation acute coronary syndrome"}, "[4]": {"settings": "Baseline (in-hospital visit prior to randomization), all patients dosed, n = 3268"}, "[5]": {"settings": "Diabetes at enrollment, n = 1098, Baseline"}, "[6]": {"settings": "Diabetes at enrollment, n = 1098, Final Visit"}, "[7]": {"settings": "Diabetes at enrollment, n = 1098, Month 4"}, "[8]": {"settings": "Diabetes at enrollment, n = 1098, Month 8"}, "[9]": {"settings": "Diabetes at enrollment, n = 1098, Month 16"}, "[10]": {"settings": "Final Visit, all patients dosed, n = 3268"}, "[11]": {"settings": "Month 4, all patients dosed, n = 3268"}, "[12]": {"settings": "Month 8, all patients dosed, n = 3268"}, "[13]": {"settings": "Month 16, all patients dosed, n = 3268"}, "[14]": {"settings": "No Diabetes at enrollment, n = 2170, Baseline"}, "[15]": {"settings": "No Diabetes at enrollment, n = 2170, Final Visit"}, "[16]": {"settings": "No Diabetes at enrollment, n = 2170, Month 4"}, "[17]": {"settings": "No Diabetes at enrollment, n = 2170, Month 8"}, "[18]": {"settings": "No Diabetes at enrollment, n = 2170, Month 16"}, "[19]": {"settings": "at 4 months, 4306 patients with serial measurements"}, "[20]": {"settings": "patients with DM treated with ranolazine"}, "[21]": {"settings": "30 days, all patients dosed, n = 3268"}, "[22]": {"settings": "60 days, all patients dosed, n = 3268"}, "[23]": {"settings": "360 days, all patients dosed, n = 3268"}, "[24]": {"settings": "540 days, all patients dosed, n = 3268"}, "[25]": {"settings": "endpoint death or CV hospitalization, all patients dosed, n = 3268"}, "[26]": {"settings": "ranolazine vs placebo, all patients dosed"}}, "note": "Read-outs that look alike come from different tables or passages of the source.", "data": [{"smiles": "COc1ccccc1OCC(O)CN1CCN(CC(=O)Nc2c(C)cccc2C)CC1", "note": "(racemic) [Ranolazine, (±)-N-(2,6-dimethylphenyl)-4-[2-hydroxy-3-(2-methoxyphenoxy)-propyl]-1-piperazineacetamide]", "values": [{"measurement": "Rate of primary CECG endpoint events", "setting": "[1]; >72 hours after randomization", "result": 11.6, "unit": "%"}, {"measurement": "RR, primary CECG endpoint events", "setting": "[1]; >72 hours after randomization, ranolazine vs placebo", "result": 0.86}, {"measurement": "Rate of primary CECG endpoint (ST dep ≧1 mm lasting ≧1 minute, heart rate at onset <100 bpm)", "setting": "[1]; entire 7 day recording", "result": 19.2, "unit": "%"}, {"measurement": "Rate of CECG ischemic events", "setting": "[1]; lower ischemic threshold of 0.5 mm", "result": 22.9}, {"measurement": "RR, CECG ischemic events", "setting": "[1]; lower ischemic threshold of 0.5 mm, ranolazine vs placebo", "result": 0.91}, {"measurement": "Patients with HbA1C ≧7%, number", "setting": "[2]; [4]", "result": 655}, {"measurement": "Patients with HbA1C ≧7%, proportion", "setting": "[2]; [4]", "result": "(24%)"}, {"measurement": "Patients with HbA1C ≧7%, number", "setting": "[2]; [5]", "result": 542}, {"measurement": "Patients with HbA1C ≧7%, proportion", "setting": "[2]; [5]", "result": "(57%)"}, {"measurement": "Patients with HbA1C ≧7%, number", "setting": "[2]; [6]", "result": 324}, {"measurement": "Patients with HbA1C ≧7%, proportion", "setting": "[2]; [6]", "result": "(42%)"}, {"measurement": "Patients with HbA1C ≧7%, number", "setting": "[2]; [7]", "result": 326}, {"measurement": "Patients with HbA1C ≧7%, proportion", "setting": "[2]; [7]", "result": "(41%)"}, {"measurement": "Patients with HbA1C ≧7%, number", "setting": "[2]; [8]", "result": 263}, {"measurement": "Patients with HbA1C ≧7%, proportion", "setting": "[2]; [8]", "result": "(44%)"}, {"measurement": "Patients with HbA1C ≧7%, number", "setting": "[2]; [9]", "result": 63}, {"measurement": "Patients with HbA1C ≧7%, proportion", "setting": "[2]; [9]", "result": "(48%)"}, {"measurement": "Patients with HbA1C ≧7%, number", "setting": "[2]; [10]", "result": 416}, {"measurement": "Patients with HbA1C ≧7%, proportion", "setting": "[2]; [10]", "result": "(17%)"}, {"measurement": "Patients with HbA1C ≧7%, number", "setting": "[2]; [11]", "result": 404}, {"measurement": "Patients with HbA1C ≧7%, proportion", "setting": "[2]; [11]", "result": "(17%)"}, {"measurement": "Patients with HbA1C ≧7%, number", "setting": "[2]; [12]", "result": 335}, {"measurement": "Patients with HbA1C ≧7%, proportion", "setting": "[2]; [12]", "result": "(18%)"}, {"measurement": "Patients with HbA1C ≧7%, number", "setting": "[2]; [13]", "result": 84}, {"measurement": "Patients with HbA1C ≧7%, proportion", "setting": "[2]; [13]", "result": "(20%)"}, {"measurement": "Patients with HbA1C ≧7%, number", "setting": "[2]; [14]", "result": 113}, {"measurement": "Patients with HbA1C ≧7%, proportion", "setting": "[2]; [14]", "result": "(6%)"}, {"measurement": "Patients with HbA1C ≧7%, number", "setting": "[2]; [15]", "result": 92}, {"measurement": "Patients with HbA1C ≧7%, proportion", "setting": "[2]; [15]", "result": "(6%)"}, {"measurement": "Patients with HbA1C ≧7%, number", "setting": "[2]; [16]", "result": 78}, {"measurement": "Patients with HbA1C ≧7%, proportion", "setting": "[2]; [16]", "result": "(5%)"}, {"measurement": "Patients with HbA1C ≧7%, number", "setting": "[2]; [17]", "result": 72}, {"measurement": "Patients with HbA1C ≧7%, proportion", "setting": "[2]; [17]", "result": "(6%)"}, {"measurement": "Patients with HbA1C ≧7%, number", "setting": "[2]; [18]", "result": 21}, {"measurement": "Patients with HbA1C ≧7%, proportion", "setting": "[2]; [18]", "result": "(7%)"}, {"measurement": "HbA1c (least-square mean)", "setting": "[2]; [19]", "result": 5.9, "unit": "%"}, {"measurement": "HbA1c change from baseline", "setting": "[2]; [19]", "result": "−0.30", "unit": "%"}, {"measurement": "Worsening of hyperglycemia (>1% increase in HbA1c)", "setting": "[2]; diabetic patients, by 1 year of follow-up", "result": 14.2, "unit": "%"}, {"measurement": "HR, worsening of hyperglycemia", "setting": "[2]; diabetic patients, ranolazine vs placebo, 95% CI 0.51, 0.77", "result": 0.63}, {"measurement": "Reported hypoglycemia", "setting": "[2]; patients with DM", "result": 3, "unit": "%"}, {"measurement": "HbA1c after decline", "setting": "[2]; [20]", "result": 6.8, "unit": "%"}, {"measurement": "HbA1c Δ", "setting": "[2]; [20]", "result": "−0.64", "unit": "%"}, {"measurement": "HbA1c before decline", "setting": "[2]; patients with DM treated with ranolazine, starting value", "result": 7.2, "unit": "%"}, {"measurement": "Patients achieving an HbA1c <7%", "setting": "[2]; patients with DM, at 4 months", "result": 59, "unit": "%"}, {"measurement": "Incidence of new fasting glucose >110 mg/dL or HbA1c ≧6%", "setting": "[2]; patients without DM at randomization or baseline (fasting glucose <100 mg/dL and HbA1c <6%)", "result": 31.8, "unit": "%"}, {"measurement": "HR, new fasting glucose >110 mg/dL or HbA1c ≧6%", "setting": "[2]; patients without DM, ranolazine vs placebo, 95% CI 0.53, 0.88", "result": 0.68}, {"measurement": "Incidence (Kaplan-Meier estimate) of death from any cause", "setting": "[3]; [21]", "result": 1.8, "unit": "%"}, {"measurement": "Incidence (Kaplan-Meier estimate) of death or CV hospitalization", "setting": "[3]; [21]", "result": 9.2, "unit": "%"}, {"measurement": "Incidence (Kaplan-Meier estimate) of death from any cause", "setting": "[3]; [22]", "result": 2.2, "unit": "%"}, {"measurement": "Incidence (Kaplan-Meier estimate) of death or CV hospitalization", "setting": "[3]; [22]", "result": 15.0, "unit": "%"}, {"measurement": "Incidence (Kaplan-Meier estimate) of death from any cause", "setting": "[3]; 180 days, all patients dosed, n = 3268", "result": 3.4, "unit": "%"}, {"measurement": "Incidence (Kaplan-Meier estimate) of death from any cause", "setting": "[3]; [23]", "result": 5.3, "unit": "%"}, {"measurement": "Incidence (Kaplan-Meier estimate) of death or CV hospitalization", "setting": "[3]; [23]", "result": 32.8, "unit": "%"}, {"measurement": "Incidence (Kaplan-Meier estimate) of death from any cause", "setting": "[3]; [24]", "result": 7.0, "unit": "%"}, {"measurement": "Incidence (Kaplan-Meier estimate) of death or CV hospitalization", "setting": "[3]; [24]", "result": 37.6, "unit": "%"}, {"measurement": "Symptomatic documented arrhythmias", "setting": "[3]; Example 7", "result": 3.0, "unit": "%"}, {"measurement": "Clinically reported sudden cardiac death, number", "setting": "[3]; Example 8", "result": 56}, {"measurement": "Pts with events: death from any cause (safety endpoint)", "setting": "[3]; all patients dosed, n = 3268", "result": 172}, {"measurement": "Pts with events: first occurrence of death or CV hospitalization (safety endpoint)", "setting": "[3]; all patients dosed, n = 3268", "result": 1037}, {"measurement": "Symptomatic documented arrhythmias: Bradyarrhythmias, %", "setting": "[3]; all patients dosed, n = 3268", "result": 1.0, "unit": "%"}, {"measurement": "Symptomatic documented arrhythmias: Bradyarrhythmias, number", "setting": "[3]; all patients dosed, n = 3268", "result": 34}, {"measurement": "Symptomatic documented arrhythmias: Cardiac arrest NOS, %", "setting": "[3]; all patients dosed, n = 3268", "result": 0.3, "unit": "%"}, {"measurement": "Symptomatic documented arrhythmias: Cardiac arrest NOS, number", "setting": "[3]; all patients dosed, n = 3268", "result": 10}, {"measurement": "Symptomatic documented arrhythmias: Pts. with Arrhythmias - Overall, %", "setting": "[3]; all patients dosed, n = 3268", "result": 3.0, "unit": "%"}, {"measurement": "Symptomatic documented arrhythmias: Pts. with Arrhythmias - Overall, number", "setting": "[3]; all patients dosed, n = 3268", "result": 99}, {"measurement": "Symptomatic documented arrhythmias: Supraventricular arrhythmias, %", "setting": "[3]; all patients dosed, n = 3268", "result": 1.2, "unit": "%"}, {"measurement": "Symptomatic documented arrhythmias: Supraventricular arrhythmias, number", "setting": "[3]; all patients dosed, n = 3268", "result": 38}, {"measurement": "Symptomatic documented arrhythmias: Ventricular arrhythmias, %", "setting": "[3]; all patients dosed, n = 3268", "result": 0.7, "unit": "%"}, {"measurement": "Symptomatic documented arrhythmias: Ventricular arrhythmias, number", "setting": "[3]; all patients dosed, n = 3268", "result": 22}, {"measurement": "Endpoint-defining events: CV hospitalization, % of pts with events", "setting": "[3]; [25]", "result": 89.3, "unit": "%"}, {"measurement": "Endpoint-defining events: CV hospitalization, number", "setting": "[3]; [25]", "result": 926}, {"measurement": "Endpoint-defining events: Death, % of pts with events", "setting": "[3]; [25]", "result": 10.7, "unit": "%"}, {"measurement": "Endpoint-defining events: Death, number", "setting": "[3]; [25]", "result": 111}, {"measurement": "HR, total mortality", "setting": "[3]; ranolazine vs placebo, 95% CI 0.80-1.22", "result": 0.99}, {"measurement": "Relative risk (SE), death from any cause", "setting": "[3]; [26]", "result": "0.988 (0.11)"}, {"measurement": "Relative risk (SE), death or CV hospitalization", "setting": "[3]; [26]", "result": "0.981 (0.04)"}, {"measurement": "Symptomatic documented arrhythmias", "setting": "[3]; women", "result": 2.6, "unit": "%"}]}]}
